Assay results from US8940731B2, “Substituted pyridyl amide compounds as modulators of the histamine H3 receptor” (Janssen Pharmaceutica NV, priority 2006, dated 2015).
Where a name gives a salt, the structure may show the parent alone.

Molecular target: T1, cloned human H3 receptors (Homo sapiens, UniProt Q9Y5N1)
T1 construct: expressed in transfected cells
Assay: H3 Receptor Binding (Human)
Conditions: cloned human H3 receptors stably expressed in SK-N-MC cells; average of the results obtained; read-out: Human H3 Ki
Method: H3 Receptor Binding (Human)
Binding of compounds to the cloned human H3 receptors, stably expressed in SK-N-MC cells, was performed as described by Barbier, A. J. et al. (Br. J. Pharmacol. 2004, 143(5), 649-661).

T1 sequence (Q9Y5N1 whole entry): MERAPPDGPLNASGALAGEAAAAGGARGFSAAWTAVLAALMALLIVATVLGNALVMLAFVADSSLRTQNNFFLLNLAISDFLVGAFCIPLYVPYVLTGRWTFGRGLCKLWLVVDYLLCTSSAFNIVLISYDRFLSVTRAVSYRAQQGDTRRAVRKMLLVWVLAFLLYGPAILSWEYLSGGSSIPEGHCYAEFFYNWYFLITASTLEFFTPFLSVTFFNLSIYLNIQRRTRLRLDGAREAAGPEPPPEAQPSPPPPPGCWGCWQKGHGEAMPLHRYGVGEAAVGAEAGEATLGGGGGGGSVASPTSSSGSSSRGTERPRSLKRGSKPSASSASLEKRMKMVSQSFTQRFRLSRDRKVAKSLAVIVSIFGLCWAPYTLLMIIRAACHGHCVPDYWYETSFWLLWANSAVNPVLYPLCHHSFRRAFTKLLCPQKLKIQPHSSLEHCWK

SMILES | Ki [nM]
O=C(c1ccc(Oc2ccccc2)nc1)N1CCCN(C2CC2)CC1 [Example 13, (4-Cyclopropyl-[1,4]diazepan-1-yl)-(6-phenoxy-pyridin-3-yl)-methanone] | 6
O=C(c1ccc(Oc2ccc(F)cc2)nc1)N1CCCN(C2CC2)CC1 [Example 18, (4-Cyclopropyl-[1,4]diazepan-1-yl)-[6-(4-fluoro-phenoxy)-pyridin-3-yl]-methanone] | 2
N#Cc1cccc(Oc2ccc(C(=O)N3CCCN(C4CCC4)CC3)cn2)c1 [Example 20, 3-[5-(4-Cyclobutyl-[1,4]diazepane-1-carbonyl)-pyridin-2-yloxy]-benzonitrile] | 1
O=C(c1ccc(Oc2ccccc2)nc1)N1CCCN(C2CCC2)CC1 [Example 21, (4-Cyclobutyl-[1,4]diazepan-1-yl)-(6-phenoxy-pyridin-3-yl)-methanone] | 2
O=C(c1ccc(Oc2cccc(Cl)c2)nc1)N1CCCN(C2CC2)CC1 [Example 23, [6-(3-Chloro-phenoxy)-pyridin-3-yl]-(4-cyclopropyl-[1,4]diazepan-1-yl)-methanone] | 3
O=C(c1ccc(Oc2ccc(F)c(F)c2)nc1)N1CCCN(C2CC2)CC1 [Example 27, (4-Cyclopropyl-[1,4]diazepan-1-yl)-[6-(3,4-difluoro-phenoxy)-pyridin-3-yl]-methanone] | 4
O=C(c1ccc(Oc2ccc(F)cc2F)nc1)N1CCCN(C2CC2)CC1 [Example 32, (4-Cyclopropyl-[1,4]diazepan-1-yl)-[6-(2,4-difluoro-phenoxy)-pyridin-3-yl]-methanone] | 4
Cc1cc(Oc2cccc(C(=O)N3CCCN(C(C)C)CC3)n2)ccc1Cl [Example 49, [6-(4-Chloro-3-methyl-phenoxy)-Pyridin-2-yl]-(4-isopropyl-[1,4]diazepan-1-yl)-methanone trifluoroacetic acid salt] | 115
CC(C)N1CCCN(C(=O)c2ccc(Oc3ccc(Cl)c(Cl)c3)cn2)CC1 [Example 50, [5-(3,4-Dichloro-phenoxy)-pyridin-2-yl]-(4-isopropyl-[1,4]diazepan-1-yl)-methanone trifluoroacetic acid salt] | 18
CC(C)N1CCN(C(=O)c2ccc(Oc3ccc(Cl)c(Cl)c3)c(C#N)n2)CC1 [Example 53, 3-(3,4-Dichloro-phenoxy)-6-(4-isopropyl-piperazine-1-carbonyl)-pyridine-2-carbonitrile trifluoroacetic acid salt] | 49
CC(C)N1CCN(C(=O)c2ccc(Oc3ccc(Cl)c(Cl)c3)c(C(N)=O)n2)CC1 [Example 54, 3-(3,4-Dichloro-phenoxy)-6-(4-isopropyl-piperazine-1-carbonyl)-pyridine-2-carboxylic acid amide trifluoroacetic acid salt] | 104
CSc1ccc(Oc2ccc(C(=O)N3CCCN(C4CC4)CC3)nc2C#N)cc1 [Example 55, 6-(4-Cyclopropyl-[1,4]diazepane-1-carbonyl)-3-(4-methylsulfanyl-phenoxy)-pyridine-2-carbonitrile] | 21
N#Cc1nc(C(=O)N2CCCN(C3CC3)CC2)ccc1Oc1ccc(Cl)c(Cl)c1 [Example 58, 6-(4-Cyclopropyl-[1,4]diazepane-1-carbonyl)-3-(3,4-dichloro-phenoxy)-pyridine-2-carbonitrile] | 10
N#Cc1nc(C(=O)N2CCCN(C3CC3)CC2)ccc1Oc1cccc(F)c1 [Example 60, 6-(4-Cyclopropyl-[1,4]diazepane-1-carbonyl)-3-(3-fluoro-phenoxy)-pyridine-2-carbonitrile] | 29
CSc1ccc(Oc2ccc(C(=O)N3CCCN(C4CC4)CC3)nc2C(N)=O)cc1 [Example 62, 6-(4-Cyclopropyl-[1,4]diazepane-1-carbonyl)-3-(4-methylsulfanyl-phenoxy)-pyridine-2-carboxylic acid amide] | 36
NC(=O)c1nc(C(=O)N2CCCN(C3CC3)CC2)ccc1Oc1cccnc1 [Example 63, 6-(4-Cyclopropyl-[1,4]diazepane-1-carbonyl)-3-(pyridin-3-yloxy)-pyridine-2-carboxylic acid amide] | 32
CC(C)N1CCN(C(=O)c2ccc(Oc3ccc(Cl)c(Cl)c3)c(CN)n2)CC1 [Example 64, [6-Aminomethyl-5-(3,4-dichloro-phenoxy)-pyridin-2-yl]-(4-isopropyl-piperazin-1-yl)-methanone trifluoroacetic acid salt] | 165
O=C(c1ccc(Oc2ccc(F)cc2)cn1)N1CCCN(C2CCC2)CC1 [Example 69, (4-Cyclobutyl-[1,4]diazepan-1-yl)-[5-(4-fluoro-phenoxy)-pyridin-2-yl]-methanone trifluoroacetic acid salt] | 2
O=C(c1ccc(Oc2cccc(F)c2)cn1)N1CCCN(C2CCC2)CC1 [Example 71, (4-Cyclobutyl-[1,4]diazepan-1-yl)-[5-(3-fluoro-phenoxy)-pyridin-2-yl]-methanone trifluoroacetic acid salt] | 2

SMILES | Ki [nM]
O=C(c1ccc(Oc2ccccc2F)cn1)N1CCCN(C2CCC2)CC1 [Example 72, (4-Cyclobutyl-[1,4]diazepan-1-yl)-[5-(2-fluoro-phenoxy)-pyridin-2-yl]-methanone] | 2
CC(C)N1CCN(C(=O)c2ccc(Oc3ccccc3Cl)nc2)CC1 [Example 75, [6-(2-Chloro-phenoxy)-pyridin-3-yl]-(4-isopropyl-piperazin-1-yl)-methanone] | 9
O=C(c1ccc(Oc2ccccc2Cl)nc1)N1CCN(C2CCCC2)CC1 [Example 76, [6-(2-Chloro-phenoxy)-Pyridin-3-yl]-(4-cyclopentyl-piperazin-1-yl)-methanone] | 19
O=C(c1ccc(Oc2ccc(Cl)cc2)nc1)N1CCN(C2CCCC2)CC1 [Example 77, [6-(4-Chloro-phenoxy)-Pyridin-3-yl]-(4-cyclopentyl-piperazin-1-yl)-methanone] | 22
O=C(c1ccc(Oc2ccccc2F)nc1)N1CCN(C2CCCC2)CC1 [Example 78] | 24
O=C(c1ccc(Oc2ccc(F)cc2)nc1)N1CCN(C2CCC2)CC1 [Example 79, (4-Cyclobutyl-piperazin-1-yl)-[6-(4-fluoro-phenoxy)-pyridin-3-yl]-methanone] | 10
CN1CCCN(C(=O)c2ccc(Oc3ccc(F)cc3)nc2)CC1 [Example 80, [6-(4-Fluoro-phenoxy)-pyridin-3-yl]-(4-methyl-[1,4]diazepan-1-yl)-methanone] | 253
N#Cc1nc(C(=O)N2CCCN(C3CC3)CC2)ccc1Oc1ccccc1 [Example 81, 6-(4-Cyclopropyl-[1,4]diazepane-1-carbonyl)-3-phenoxy-pyridine-2-carbonitrile] | 3
N#Cc1nc(C(=O)N2CCCN(C3CCC3)CC2)ccc1Oc1ccc(F)cc1 [Example 82, 6-(4-Cyclobutyl-[1,4]diazepane-1-carbonyl)-3-(4-fluoro-phenoxy)-pyridine-2-carbonitrile] | 1
O=C(c1ccc(Sc2ccc(Cl)cc2)nc1)N1CCCN(C2CCC2)CC1 [Example 85, [6-(4-Chloro-phenylsulfanyl)-pyridin-3-yl]-(4-cyclobutyl-[1,4]diazepan-1-yl)-methanone] | 1
O=C(c1ccc(Sc2ccccc2)cn1)N1CCCN(C2CCC2)CC1 [Example 91, (4-Cyclobutyl-[1,4]diazepan-1-yl)-(5-phenylsulfanyl-pyridin-2-yl)-methanone] | 3
CN1CCCN(C(=O)c2ccc(Oc3ccc(F)cc3)nc2)CC1 [Example 92, [6-(4-Fluoro-phenoxy)-pyridin-3-yl]-(4-methyl-[1,4]diazepan-1-yl)-methanone] | 250
CC(C)CN1CCN(C(=O)c2ccc(Oc3ccc(F)cc3)nc2)CC1 [Example 93, [6-(4-Fluoro-phenoxy)-pyridin-3-yl]-(4-isobutyl-piperazin-1-yl)-methanone] | 58
O=C(c1ccc(Sc2ccc(F)cc2)nc1)N1CCCN(C2CCC2)CC1 [Example 97, (4-Cyclobutyl-[1,4]diazepan-1-yl)-[6-(4-fluoro-phenylsulfanyl)-pyridin-3-yl]-methanone] | 1
CCN1CCCN(C(=O)c2ccc(Oc3ccc(F)cc3)nc2)CC1 [Example 98, (4-Ethyl-[1,4]diazepan-1-yl)-[6-(4-fluoro-phenoxy)-pyridin-3-yl]-methanone] | 19
CC(C)N1CCN(C(=O)c2ccc(Oc3ccc(F)cc3)nc2)CC1 [Example 99, [6-(4-Fluoro-phenoxy)-pyridin-3-yl]-(4-isopropyl-piperazin-1-yl)-methanone] | 28
CSc1ccc(Oc2ccc(C(=O)N3CCN(C4CCCC4)CC3)cn2)cc1C [Example 100, (4-Cyclopentyl-piperazin-1-yl)-[6-(3-methyl-4-methylsulfanyl-phenoxy)-pyridin-3-yl]-methanone] | 98
CSc1ccc(Oc2ccc(C(=O)N3CCN(C(C)C)CC3)cn2)cc1C [Example 101, (4-Isopropyl-piperazin-1-yl)-[6-(3-methyl-4-methylsulfanyl-phenoxy)-pyridin-3-yl]-methanone] | 59
Cc1cccc(Oc2ccc(C(=O)N3CCCN(C4CCC4)CC3)cn2)c1 [Example 103, (4-Cyclobutyl-[1,4]diazepan-1-yl)-(6-m-tolyloxy-pyridin-3-yl)-methanone] | 1

Molecular target: Rat H3 (Rattus norvegicus, UniProt Q9QYN8)
Assay: H3 Receptor Binding (Rat)
Conditions: rat brain membranes without cerebellum, 0.8 nM N-[3H]-α-methylhistamine, 60 min at 25° C.; average of the results obtained
Method: H3 Receptor Binding (Rat)
A rat brain without cerebellum (Zivic Laboratories Inc., Pittsburgh, Pa.) was homogenized in 50 mM Tris-HCl/5 mM EDTA and centrifuged at 1,000 rpm for 5 min. The supernatant was removed and recentrifuged at 15,000 rpm for 30 min. Pellets were rehomogenized in 50 mM Tris/5 mM EDTA (pH 7.4). Membranes were incubated with 0.8 nM N-[^3H]-α-methylhistamine plus/minus test compounds for 60 min at 25° C. and harvested by rapid filtration over GF/C glass fiber filters (pretreated with 0.3% polyethylenimine) followed by four washes with buffer. Nonspecific binding was defined in the presence of 100 μM histamine.

Chain of Rat H3 (Q9QYN8 1-397 isoform Q9QYN8-3): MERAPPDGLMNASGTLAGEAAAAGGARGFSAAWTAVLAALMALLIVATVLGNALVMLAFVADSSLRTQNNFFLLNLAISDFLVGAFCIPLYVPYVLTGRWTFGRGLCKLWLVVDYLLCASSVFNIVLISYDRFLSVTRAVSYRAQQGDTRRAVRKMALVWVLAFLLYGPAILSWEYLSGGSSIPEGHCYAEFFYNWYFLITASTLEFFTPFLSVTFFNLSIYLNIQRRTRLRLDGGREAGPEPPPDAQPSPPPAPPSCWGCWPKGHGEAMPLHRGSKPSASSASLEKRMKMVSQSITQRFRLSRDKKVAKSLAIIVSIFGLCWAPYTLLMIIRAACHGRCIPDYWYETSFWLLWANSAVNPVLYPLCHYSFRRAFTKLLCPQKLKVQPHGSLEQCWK

SMILES | Ki [nM]
O=C(c1ccc(Oc2ccccc2)nc1)N1CCCN(C2CC2)CC1 [Example 13, (4-Cyclopropyl-[1,4]diazepan-1-yl)-(6-phenoxy-pyridin-3-yl)-methanone] | 54
O=C(c1ccc(Oc2ccc(F)cc2)nc1)N1CCCN(C2CC2)CC1 [Example 18, (4-Cyclopropyl-[1,4]diazepan-1-yl)-[6-(4-fluoro-phenoxy)-pyridin-3-yl]-methanone] | 68
N#Cc1cccc(Oc2ccc(C(=O)N3CCCN(C4CCC4)CC3)cn2)c1 [Example 20, 3-[5-(4-Cyclobutyl-[1,4]diazepane-1-carbonyl)-pyridin-2-yloxy]-benzonitrile] | 17
O=C(c1ccc(Oc2ccccc2)nc1)N1CCCN(C2CCC2)CC1 [Example 21, (4-Cyclobutyl-[1,4]diazepan-1-yl)-(6-phenoxy-pyridin-3-yl)-methanone] | 16
O=C(c1ccc(Oc2cccc(Cl)c2)nc1)N1CCCN(C2CC2)CC1 [Example 23, [6-(3-Chloro-phenoxy)-pyridin-3-yl]-(4-cyclopropyl-[1,4]diazepan-1-yl)-methanone] | 70
O=C(c1ccc(Oc2ccc(F)c(F)c2)nc1)N1CCCN(C2CC2)CC1 [Example 27, (4-Cyclopropyl-[1,4]diazepan-1-yl)-[6-(3,4-difluoro-phenoxy)-pyridin-3-yl]-methanone] | 86
O=C(c1ccc(Oc2ccc(F)cc2F)nc1)N1CCCN(C2CC2)CC1 [Example 32, (4-Cyclopropyl-[1,4]diazepan-1-yl)-[6-(2,4-difluoro-phenoxy)-pyridin-3-yl]-methanone] | 92
